Data taken from patent US6465168B1, “Methods and apparatus for the inactivation of viruses” (priority 1992, dated 2002).
Where two headings read alike, the source gives them in different places. Marks after values point to notes of the source that are not given here.

Key:
[1] = test system: murine-C retrovirus; assay: Critical fluid viral inactivation of murine-C retrovirus in serum, polybrene enhanced titer on NIH3T3 cells; format: cell-based
Description: (§1) In its normal operating mode, valves PV-4 and PV-5 are opened and an aliquot of test solution is aseptically introduced through the 3-way valve PV-4 using a sterile syringe and a presterilized loading tube. The 3-way valve PV-4 is then turned so that the critical fluid recycle line communicates with the soaking chamber, and the vent valve PV-5 is closed. PV-1 is then opened, supplying the solvent to the compressor P-1. The compressor is turned on and immediately thereafter valves PV-2 and PV-3 are opened, introducing the critical fluid solvent into the high pressure circulation loop. When operating pressure is attained, the compressor is turned off and valve PV-3 is closed.
(§2) After system stabilization, the circulation pump P-2 is turned on and its speed adjusted, typically to 75% of maximum speed or 6,750 rpm. P-2 draws both the proteinaceous product from the bottom of the soaking chamber and the critical fluid phase from the top of the same unit. The mixture is then pumped counter-clockwise, mixed by static in-line mixer and returned to the soaking chamber. After mixing for a defined residence time, P-2 is turned off. The decompression valve PV-7 is then fully opened to depressurize the soaking chamber and the high pressure circulation loop. The rate of decompression was approximately 500 psig per second when PV-7 is a ¼″ ball valve. By using a back-pressure regulator instead of a ¼″ ball valve as the decompression valve PV-7, the rate of decompression can be controlled. In some experiments, the rate of decompression was controlled to approximately 2,000 psig per minute.
(§3) In the examples described herein, samples of a recombinant murine C-type retrovirus were prepared as follows. […] Clonal cell lines stably expressing the transfected DNA were derived and maintained as virus-producing stocks. By packaging the RNA produced by the transfected DNA into the defective particles, these cells produce infectious particles that are entirely normal with respect to overall structure, stability, and mode of infection, but containing the plasmid-derived rather that the wild type, genetic material (Mann et al., Ibid).
(§4) Because the LNCX sequences contain the antibiotic resistance gene neo and a suitable promoter, infection of cells with the recombinant retrovirus confers upon the cells resistance to the antibiotic Geneticin (G418). Conferral of Geneticin-resistance onto cells and their progeny was therefore used as the property by which virus titers were determined. Specifically, virus stocks were prepared by culturing the virus-producing cells at high density (50% confluence) in fresh culture medium (Dulebecco's modified Eagle's medium supplemented with 10% iron-supplemented calf serum [Hyclone, Inc., Logan, UT], glutamine [1 mM], penicillin [100 U/ml] and streptomycin [100 μg/ml] for 18 hours at 37 C. in a humidified 5% CO2 atmosphere. Culture medium was harvested and passed through a 0.2 micron filter, divided into aliquots, quick frozen using a dry-ice/ethanol bath and stored at −80° C. Immediately before use, samples were warmed in a 37 C. water bath until just thawed and held on ice. Aliquots of a single virus preparation were used for the examples described below.
(§5) After virus-containing samples were mixed with other materials and treated as described in each of the examples, they were returned to ice, and assayed within 8 hours. Titer tests were performed by seeding 35 mm-style culture dishes with a mouse fibroblast line (NIH3T3 cells) in 3 ml of the culture medium described above at a density of 10,000 cells per well the evening before the assay was to be performed. Virus samples were added to the culture medium over the cells at various dilution from 10^0 (undiluted) to 10^−6.

[2] = test system: murine C-type retrovirus; format: cell-based; conditions: culture medium; for Titer: control 5,000; for effectiveness in inactivating the retrovirus: supercritical fluid, approximately 3,000 psig and 40° C.
Description: as §1, §2, §3, §4, §5

[3] = runs CFI-28 to CFI-30: 3,000 psig, 41 C., 30 mins, serum
[4] = runs CFI-28 to CFI-30: 3,000 psig, 41 C., 30 mins, serum, polybrene, control 65,000
[5] = runs CFI-33 (Fr-22), CFI-35 (N2): 3,000 psig, 41 C., 60 mins, serum
[6] = runs CFI-33 (Fr-22), CFI-35 (N2): 3,000 psig, 41 C., 60 mins, serum, control 20,000, 5 = detection limit
[7] = run CFI-21: 3,250 psig, 41 C., 30 mins
[8] = run CFI-18: 2,560 psig, 43 C., 30 mins
[9] = run CFI-19: 2,690 psig, 41 C., 5 mins

CCC [C3H8, propane]
- log10 Reduction [1, 3]: 1.4 | Titer [1, 4]: 2,500 cfu/2.3 ml

FC(F)Cl [Fr-22, chlorodifluoromethane]
reduction of viral activity ([1]; after 30 minutes of contacting the serum, approximately 3,000 psig and 40° C.): ~3.2 log orders of magnitude | time to eliminate viral activity, within the detection limits of the assay ([1]; approximately 3,000 psig and 40° C., serum): within five minutes | - log10 Reduction ([1]; run CFI-31: 3,000 psig, 40 C., 5 mins, serum): >3.6 | Titer ([1]; run CFI-31: 3,000 psig, 40 C., 5 mins, serum, control 20,000, 5 = detection limit): <5* cfu/2.0 ml | - log10 Reduction ([1]; run CFI-32: 3,000 psig, 40 C., 15 mins, serum): 3.6 | Titer ([1]; run CFI-32: 3,000 psig, 40 C., 15 mins, serum, control 20,000): 5 cfu/2.0 ml | - log10 Reduction [1, 3]: 3.2 | Titer [1, 4]: 40 cfu/2.3 ml | - log10 Reduction [1, 5]: >3.6 | Titer [1, 6]: <5* cfu/2.0 ml

N#N [N2, nitrogen]
- log10 Reduction [1, 5]: 0.7 | Titer [1, 6]: 3,750 cfu/2.0 ml | - log10 Reduction [2, 7]: 0.2 | Titer [2, 7]: 3,000 cfu/2.3 ml | effectiveness in inactivating the retrovirus [2]: relatively ineffective

[N-]=[N+]=O [N2O, nitrous oxide]
reduction of virus activity ([1]; 3,000 psig and 40° C., residence time 30 minutes, serum (CFI-27)): 1.4 logs | inactivation of the viral population, within the detection limits of the assay ([1]; 5,000 psig and 40° C., residence time 30 minutes, serum (CFI-34)): inactivated the entire viral population | - log10 Reduction ([1]; run CFI-26: 3,000 psig, 60 C., 30 mins, serum): >4.1 | Titer ([1]; run CFI-26: 3,000 psig, 60 C., 30 mins, serum, polybrene, 40 C. control 65,000, 5 = detection limit): <5* cfu/2.3 ml | - log10 Reduction ([1]; run CFI-27: 3,000 psig, 40 C., 30 mins, serum): 1.4 | Titer ([1]; run CFI-27: 3,000 psig, 40 C., 30 mins, serum, polybrene, control 65,000): 3,000 cfu/2.3 ml | - log10 Reduction ([1]; run CFI-34: 5,000 psig, 41 C., 30 mins, serum): >3.6 | Titer ([1]; run CFI-34: 5,000 psig, 41 C., 30 mins, serum, control 20,000, 5 = detection limit): <5* cfu/2.0 ml | reduction of effectiveness by the presence of protein ([1]; serum (CFI-27) compared with culture medium (CFI-18)): one to two orders of magnitude | - log10 Reduction [2, 8]: 2.7 | Titer [2, 8]: 10 cfu/2.3 ml | - log10 Reduction [2, 9]: 2.0 | Titer [2, 9]: 50 cfu/2.3 ml | - log10 Reduction ([2]; run CFI-20: 3,180 psig, 41 C., 121 mins): >3.0 | Titer ([2]; run CFI-20: 3,180 psig, 41 C., 121 mins, 5 = detection limit): <5* cfu/2.3 ml | effectiveness in inactivating the retrovirus [2]: very effective

CCO [ethanol]
impact on the effect of supercritical nitrous oxide ([1]; 2 mole % ethanol cosolvent, approximately 3,000 psig, 40° C., 30 minutes, serum): little or no impact | effect on the titer ([1]; control without critical fluid, 40° C., 2 mole % ethanol in the serum): does not affect the titer
